In patent US20260014278A1, “HYBRID PEPTIDE DENDRIMER SYSTEMS AND EXTRAHEPATIC DELIVERY” (NUNTIUS THERAPEUTICS LIMITED, priority 2022, published 2026):

What was measured:
[1] = Dynamic light scattering: hydrodynamic size and polydispersity index (PDI) of nanoparticles; type: physicochemical
Procedure, shortened: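 Hydrodynamic size measured by DLS (Stokes-Einstein), PDI from cumulants fit per ISO 13321/22412. Samples diluted 16× in 25 mM HEPES, water as dispersant, 25° C; PDI measured on dendrimer:nucleic acid 8:1 nanoparticles.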

[2] = Zeta potential of nanoparticles (electrophoretic light scattering); type: physicochemical
Text: Zeta potential is a measurement of the magnitude of the electrostatic or charge repulsion/attraction between particles. This can be determined by analysing particle mobility and charge (Zeta potential) using the Electrophoretic Light Scattering (ELS) technique.
Zeta potential is a measurement of the magnitude of the electrostatic or charge repulsion/attraction between particles. This can be determined by analysing particle mobility and charge (Zeta potential) using the Electrophoretic Light Scattering (ELS) technique. […] Parameters: reference material: polystyrene latex, dispersant: water, 25° C. The measurements of the zeta potential were carried out using the Zetasizer Advance Series—Pro (Malvern Panalytical Ltd, Malvern, UK) according to the manufacturer's instructions.

[3] = tested on: mouse muscle cells (C2c12 cells); test: eGFP expression in undifferentiated C2c12 cells, coat with or without muscle targeting domain; type: cell-based; conditions: GSCG1,2-RHL N:P=0.6:1, DOTMA/DOPE w/w 10:1, same mole equivalent of coat, 24 hours; FIG. 26
Text: Nanocarrier comprising GSCG1,2-RHL (N:P=0.6:1 to mRNA) with DOTMA/DOPE (w/w=10:1 to mRNA) and mRNA was firstly prepared as described. The nanoparticles were then coated with a dendrimer with a muscle targeting domain, the muscle-G1-EEEE (Ac-EEEE)2[…]-(Acp)-NH2), at different mRNA:coating mole ratios, between 0.5:1 to 5:1, preferably around 2.74:1. As a control, the nanoparticles were coated with a dendrimer without a muscle targeting domain, the G1-EEEE, at different mRNA:coating mole ratios, between 0.5:1 to 5:1, preferably around 2.74:1.
In a first experiment, mouse muscle cells (C2c12 cells) were transfected with formulations comprising mRNA expressing eGFP. The formulations used were comprising GSCG1,2-RHL (N:P=0.6:1 to mRNA) with DOTMA/DOPE (w/w=10:1 to mRNA) and mRNA, and coated with either the same equivalent of mole of dendritic PGA with or without the muscle targeting domain. The cells were harvested 24 hours post-transfection. Control: Cells were not transfected with mRNA. The dendrimer with the muscle targeting domain was (Ac-EEEE)2[…]-(Acp)-NH2 (named “muscle-G1-EEEE”. ASSLNIA, SEQ ID NO:1, is the muscle targeting motif). The dendrimer without the muscle targeting domain was (Ac-EEEE)2[…]-NH2 (“[…]1-EEEE”).

[4] = tested on: differentiated mouse muscle cells (C2c12 cells); test: eGFP expression in differentiated C2c12 cells, coat with or without muscle targeting domain; type: cell-based
Protocol: In a second experiment, differentiated mouse muscle cells (C2c12 cells) were transfected with formulations comprising mRNA expressing eGFP. The muscle cells were differentiated as follows: C2c12 cells were seeded and allowed to grow to confluence in a growth medium. Once the cells were confluent, the medium on the cells was replaced with a differentiation medium for 2 days to allow the cells to develop myotube characteristics. The differentiation medium was replaced with the growth medium 30 mins before transfection. The cells were transfected for 24 hours with nanocarriers indicated in FIG. 27 and harvested to assay the eGFP reporter gene expression using a plate reader. The mRNA used expressed eGFP. The growth medium contained high glucose DMEM (Gibco), 10% FBS (Gibco), 2 mM L-glutamine (Gibco). The differentiated medium contained high glucose DMEM (Gibco), 2% horse serum (Gibco), 2 mM L-glutamine (Gibco), 1 uM insulin.
As in the first experiment, the formulations used were comprising GSCG1,2-RHL (N:P=0.6:1 to mRNA) with DOTMA/DOPE (w/w=10:1 to mRNA) and mRNA, and coated with either the same equivalent of mole of dendritic PGA with or without the muscle targeting domain. The cells were harvested 24 hours post-transfection. Control: Cells were not transfected with mRNA or transfected with mRNA alone. The dendrimer with the muscle targeting domain was muscle-G1-EEEE. […]

[5] = tested on: Mouse muscle cells (C2c12); test: eGFP expression (RFU/mg) in C2c12 muscle cells, muscle-targeting dendrimers; type: cell-based; conditions: N:P=0.6:1, DOTMA:DOPE w/w 10:1, 24 hours post-transfection; FIG. 9
Protocol: Cell lines, transfection reagents and mRNA. C2c12 cells were maintained in DMEM medium with 10% (v/v) FCS and 1% (v/v) L-glutamine in a humidified atmosphere in 5% CO2, and 37° C. The Alexa Fluor 488 tagged mRNA, expressing an eGFP, was purchased from RiboPro. The mRNA either expressing an eGFP or firefly luciferase was purchased from Trilink. DOTMA:DOPE, 1:1 (w/w) were obtained from Invitrogen or Encapsula NanoSciences LLC.
Transfection procedure. 24 hours before transfection, C2c12 cells were seeded in 96well plates in order to reach 70% confluence. mRNA transfection complexes were formed by mixing mRNA with the dendrimers in 25 mM HEPES buffer, then with DOTMA:DOPE in 25 mM HEPES buffer at 25° C. The transfection complexes were then overlaid to the cells in full growth medium. The cells were harvested 4 hours after transfection for FACS analysis or 24 hours post transfection for reporter genes assays.
Two variants (NTX2 and NTX3) of the peptide dendrimer GSCG1,2-RL, 3-LR ((LR)8(KRL)4(KRL)2KGSC-NH2) were made which include the ASSLNIA (SEQ ID NO:1) muscle targeting peptide. Transfection of muscle cells with GSCG1,2-RL, 3-LR, NTX2 ((LR)8(KRL)4(KRL)2[…](Acp)-NH2) or NTX3 ((LR)8(KRL)4(KRL)2[…](Acp)-NH2) was performed using eGFP mRNA and transfection efficiency was assayed using either flow cytometry or the transgene expression assay. […]
Transgene expression assay: The cells were washed twice with PBS and incubated with 50 ul of 1× M-PER lysis buffer (Thermo 11874111). […] 40 ul of lysate from each well was transferred to all black 96 well plates for quantification of eGFP relative fluorescence unit (RFU), absorbance at 535 nm, using Molecular devices SpectraMax iD5.
Protein content determination: The protein content of each cell lysate was determined by mixing the lysate (25 μL) with Pierce™ BCA Protein Assay Kit (200 ul, Thermo Scientific). After 30 minutes of 37° C. incubation in at dark, absorbance was measured at 562 nm with Molecular devices SpectraMax iD5 and converted to protein concentration using a BSA standard curve. […]

C2c12 muscle cells = test: Uptake of Alexa488 labelled mRNA in C2c12 cells, flow cytometry; type: cell-based, mouse; conditions: NTX3 N:P=0.6:1, DOTMA:DOPE w/w 10:1, 4 hours; FIG. 18
Protocol: FIG. 18. […] Labelled mRNA delivery to cells. Mouse muscle cells (C2c12) took up mRNA labelled with an Alexa488 fluorophore following transfection. The cells were transfected with labelled mRNA alone, labelled mRNA with NTX3 (N:P=0.6:1) and DOTMA:DOPE for 4 hours, and the uptake of the mRNA was measured by flow cytometry. NTX3 is GSCG1,2-RL, 3-LR linked with a muscle cell targeting peptide with 6 histidines. DOTMA:DOPE was used at w/w=10:1 to mRNA.
C2c12 cells were maintained in DMEM medium with 10% (v/v) FCS and 1% (v/v) L-glutamine in a humidified atmosphere in 5% CO2 and 37° C. The Alexa Fluor 488 tagged mRNA, expressing an eGFP, was purchased from RiboPro. 24 hours before transfection, C2c12 cells were seeded in 96 well plates in order to reach 70% confluence. mRNA transfection complexes were formed by mixing mRNA with the dendrimers in 25 mM HEPES buffer, then with DOTMA:DOPE (1:1 w/w) in 25 mM HEPES buffer at 25° C. The transfection complexes (“NTX3”) were then overlaid to the cells in full growth medium. The cells were harvested for FACS analysis 4 hours after transfection. Cells medium and PBS used to wash each well, was collected from each treatment before the addition of […] EDTA in PBS. After 10 minutes of incubation at 37° C., the cells were gently detached from the plates and pelleted down at 400 g for 8 minutes, 4° C. […] Collected data were analysed using FlowJo 10.0 software.

[6] = GSCG1,2-RHL N:P 0.6:1, DOTMA/DOPE nanoparticles coated at 2.06:1 (dendrimer to mRNA)
[7] = GSCG1,2-RHL N:P 0.6:1, DOTMA/DOPE nanoparticles coated at 2.72:1 (dendrimer to mRNA)

| PDI [1, 6] | size [1, 6] | PDI [1, 7] | size [1, 7] | zeta potential [2, 6] | zeta potential [2, 7] | Substance | eGFP expression versus coat without muscle targeting domain [3] | eGFP expression versus coat without muscle targeting domain ([4]; GSCG1,2-RHL N:P=0.6:1, DOTMA/DOPE w/w 10:1, same mole equivalent of coat, 24 hours, FIG. 27) | mRNA transfection versus nanoparticles coated with dendrimer without the targeting domain ([4]; coat mole ratio 2.72:1 and 2.06:1 (dendrimer to mRNA)) | increase in eGFP expression compared to GSCG1,2-RL, 3-LR [5] | cells successfully transfected (uptake of Alexa488 labelled mRNA) (C2c12 muscle cells) |
| --- | --- | --- | --- | --- | --- | --- | --- | --- | --- | --- | --- |
| 0.15 | 176 nm | 0.14 | 172 nm | ~38.7 mV | ~44.0 mV | (Ac-EEEE)2KGSCGAASSLNIA-(Acp)-NH2) [muscle-G1-EEEE] | dramatic increase in eGFP expression | dramatic increase in eGFP expression | improved mRNA transfection | – | – |
| – | – | – | – | – | – | (LR)8(KRL)4(KRL)2KGSCHHHHHHGAASSLNIA(Acp)-NH2 [NTX3] | – | – | – | three-fold | approximately 100% |
